In one test the test system is HL-60(T13). Kind of test: NCI 60 panel five-dose growth inhibition, Leukemia. It counts as cell-based, human. Conditions: for GI50: Homo sapiens.
Another test has as its system SR. The experiment in a line: NCI 60 panel five-dose growth inhibition, Leukemia. Conditions: for GI50: Homo sapiens. It counts as cell-based, human.
In another test the test system is NCI-H23. The experiment in a line: NCI 60 panel five-dose growth inhibition, Non-Small Cell Lung Cancer. It counts as cell-based, human. Conditions: for GI50: Homo sapiens.
Another test deals with UACC-62. Kind of test: NCI 60 panel five-dose growth inhibition, Melanoma. It counts as cell-based, human. Conditions: for GI50: Homo sapiens, UACC-62, UACC-62, Melanoma; for TGI: UACC-62, Melanoma.
The next test deals with NCI/ADR-RES. The experiment in a line: NCI 60 panel five-dose growth inhibition, Ovarian Cancer. It counts as cell-based, human. Conditions: for GI50: Homo sapiens.
The subject of another test is SK-OV-3. Described as above. It is filed as cell-based, human. Conditions: SK-OV-3, Ovarian Cancer; for GI50: Homo sapiens.
The test system of a further test is A498. Kind of test: NCI 60 panel five-dose growth inhibition, Renal Cancer. Conditions: for GI50: Homo sapiens, A498, A498, Renal Cancer. It is filed as cell-based, human.
Another test relates to ACHN. The description is as above. It counts as cell-based, human. Conditions: for GI50: Homo sapiens.
The next test concerns DU-145. Kind of test: NCI 60 panel five-dose growth inhibition, Prostate Cancer. It counts as cell-based, human. Particulars: DU-145, Prostate Cancer; for GI50: Homo sapiens.
Another test deals with MDA-MB-231/ATCC. The experiment in a line: NCI 60 panel five-dose growth inhibition, Breast Cancer. It counts as cell-based, human. Conditions: for GI50: Homo sapiens.
For the next test, the system named is HS 5781. The test is described as above. It is filed as cell-based, human. Particulars: HS 5781, Breast Cancer; for GI50: Homo sapiens.
For test [1], the system named is panel of 60 different human cancer cell lines. Kind of test: NCI panel of 60 human cancer cell lines, summary over the panel. It counts as cell-based. Particulars: against almost all the cell lines except UACC-62, COLO 205 and HCC-2998. Here is the method:
All synthesized compounds were submitted and evaluated for their anticancer activity at the National Cancer Institute (NCI). The submitted compounds were tested against a panel of 60 different human cancer cell lines, initially at a single concentration of 10 μM. Compounds showing the best growth inhibition activity were then selected for a complete five-dose response study. The anti-tumor effect of each compound was then determined by its GI50 and LC50 values.
The five compounds selected for the full dose response studies have very effective GI50 and TGI (Total Growth Inhibition) values against a variety of human tumor cell lines. All the compounds have LD50 values >100 μM against most of the human cancer cell lines implying the compounds are anti-proliferative. […] Example 4 and Example 6 have <10 nM GI50 values against Leukemia cancer cell lines K-562, SR, non-small lung cancer cell line HOP-92, colon cancer cell lines HCT-116, HCT-15, melanoma cancer lines M14, UACC-62, ovarian cancer cell line NCI/ADR-RES and renal cancer cell line A498.

Where only a bound is given, the exact number is not on record here.

Turning to `COc1cc(-c2n[nH]nc2-c2cc(OC)c(OC)c(OC)c2)cc(OC)c1OC` [Example 3, 4,5-bis(3,4,5-trimethoxyphenyl)-2H-1,2,3-triazole], the total growth inhibition concentration (TGI) with HL-60(T13) is 5740 nM; with SR, more than 100000 nM; in the test with NCI-H23, more than 100000 nM; with UACC-62, 4610 nM; with NCI/ADR-RES, 66100 nM; in the test with SK-OV-3 it was 97700 nM. Moreover, the TGI with A498 (A498, Renal Cancer) is 6690 nM; with ACHN it was more than 100000 nM; with MDA-MB-231/ATCC, more than 100000 nM; in the test on HS 5781 it was more than 100000 nM. Besides, the GI50 in the test on HL-60(T13) was determined as 30 nM; in the test with SR, 21.1 nM; with NCI-H23 it was 64.9 nM; with UACC-62, 157 nM; in the test on NCI/ADR-RES, 23.1 nM; in the test on SK-OV-3, 75 nM. The GI50 in the test on A498 was found to be 33.2 nM; in the test with ACHN, 81.3 nM; with DU-145 it was 26.6 nM; in the test with MDA-MB-231/ATCC it was 94.7 nM.
Take `COc1cc(-c2n[nH]nc2-c2ccc3ccccc3n2)cc(OC)c1OC` [Example 4, 2-(5-(3,4,5-trimethoxyphenyl)-2H-1,2,3-triazol-4-yl)quinoline]: the GI50 is 22.7 nM with HL-60(T13); less than 10 nM in the test with SR; 37.7 nM in the test with NCI-H23; less than 10 nM in the test with UACC-62; less than 10 nM in the test on NCI/ADR-RES; 45.8 nM in the test with SK-OV-3. Moreover, the GI50 was less than 10 nM in the test with A498; 145 nM in the test with ACHN; 44.8 nM in the test on DU-145; 46 nM in the test with MDA-MB-231/ATCC; 40.9 nM in the test on HS 5781. Also, the total growth inhibition concentration (TGI) is 16900 nM with SR; 27900 nM in the test on NCI-H23; more than 100000 nM in the test with UACC-62; 80 nM in the test on NCI/ADR-RES; more than 100000 nM in the test on SK-OV-3; more than 100000 nM with ACHN. Moreover, the TGI with DU-145, with MDA-MB-231/ATCC and in the test with HS 5781 was more than 100000 nM each time.
Take `COc1ccc(-c2n[nH]nc2-c2cc(OC)cc(OC)c2)cc1` [Example 5, 4-(3,5-dimethoxyphenyl)-5-(4-methoxyphenyl)-2H-1,2,3-triazole]: the 50% growth inhibitory concentration (GI50) is less than 10 nM with HL-60(T13); less than 10 nM in the test with SR; less than 10 nM in the test with NCI-H23; more than 1000 nM in the test with UACC-62; less than 10 nM in the test on NCI/ADR-RES; less than 10 nM in the test with SK-OV-3. Moreover, the 50% growth inhibitory concentration (GI50) (in the test with A498; in the test on ACHN; in the test on DU-145; with MDA-MB-231/ATCC; in the test on HS 5781; in test [1]) was less than 10 nM each time. Also, the TGI in the test on SR is more than 100000 nM; in the test on NCI-H23 it was 68700 nM; in the test on UACC-62, more than 100000 nM; in the test on NCI/ADR-RES, 17500 nM; in the test on SK-OV-3 it was 40300 nM; with A498 (A498, Renal Cancer) it was less than 10 nM. Further, the concentration for total growth inhibition (TGI) entry in the test with A498 (A498, as stated in text) was “less than 10 nM”; in the test on ACHN, 62500 nM; in the test on MDA-MB-231/ATCC, more than 100000 nM; in the test on HS 5781 it was more than 100000 nM.
For the compound `COc1ccc(-c2n[nH]nc2-c2cc(OC)c(OC)c(OC)c2)cc1` [Example 6, 4-(4-methoxyphenyl)-5-(3,4,5-trimethoxyphenyl)-2H-1,2,3-triazole], the TGI was 80 nM in the test on HL-60(T13); 24000 nM in the test on SR; 41700 nM in the test with NCI-H23; 21200 nM with UACC-62; 69700 nM in the test on NCI/ADR-RES; 12700 nM in the test with SK-OV-3. For the same compound, the TGI in the test with A498 (A498, Renal Cancer) was 1500 nM; with ACHN it was more than 100000 nM; with DU-145, more than 100000 nM; in the test with MDA-MB-231/ATCC, more than 100000 nM; with HS 5781, 64200 nM. Moreover, the 50% growth inhibitory concentration (GI50) in the test on HL-60(T13) was 18.9 nM; with SR, less than 10 nM; with NCI-H23, 48 nM; in the test on NCI/ADR-RES, less than 10 nM; with SK-OV-3 it was less than 10 nM; in the test with A498, less than 10 nM. The GI50 in the test with ACHN is less than 10 nM; in the test on DU-145, 25 nM; with MDA-MB-231/ATCC, 44.4 nM; with HS 5781 it was 668 nM.
On to `COc1cc(-c2n[nH]nc2-c2ccc3c(c2)OCCO3)cc(OC)c1OC` [Example 7, 4-(2,3-dihydrobenzo[b][1,4]dioxin-6-yl)-5-(3,4,5-trimethoxyphenyl)-2H-1,2,3-triazole], for which the GI50 is 201 nM with HL-60(T13); 43.6 nM in the test on SR; 767 nM in the test with NCI-H23; more than 1000 nM in the test on UACC-62; 84.9 nM in the test on NCI/ADR-RES; 486 nM in the test with SK-OV-3. The GI50 stood at 343 nM with A498; 705 nM in the test on ACHN; 346 nM with DU-145; 529 nM in the test with MDA-MB-231/ATCC; 442 nM in the test with HS 5781. The TGI in the test with SR is 11600 nM; with NCI-H23, more than 100000 nM; in the test on UACC-62, 30800 nM; with NCI/ADR-RES, 24000 nM; in the test with SK-OV-3, 93200 nM; in the test with A498 (A498, Renal Cancer), 9320 nM. For the same compound, the total growth inhibition concentration (TGI) in the test with ACHN was more than 100000 nM; with DU-145 it was more than 100000 nM; with MDA-MB-231/ATCC, 31500 nM; in the test on HS 5781, more than 100000 nM.

The values are drawn from patent publication US10239844B2, “Disubstituted triazole analogs” (BioVentures, LLC, priority 2014, dated 2019).
